Here are results for 22 compounds from patent US20210261512A1, “NOVEL COMPOUNDS” (INFLAZOME LIMITED, priority 2018, published 2021).

Structures are written as SMILES. pIC50: −log10 of the molar value. Bounds are passed on as bounds.

The nature of data set [1]: PK, intravenous administration. Format: in vivo. Conditions: rat, plasma, male Sprague Dawley rats, dose about 1 mg/kg. How it is done: Pharmacokinetic parameters were determined in male Sprague Dawley rats (Vital River Laboratory Animal Technology Co Ltd, Beijing, China, 6-9 weeks old). Animals were maintained under a 12 h light/dark cycle. Animals had free access to food and water, except that orally dosed animals were food deprived overnight prior to the study.
For intravenous administration, compounds were formulated as a solution (in DMSO:water [10:90] or in DMSO:PBS [10:90]) in 2 mL/kg dosing volume and administered via tail vein. For oral administration, compounds were formulated as a solution (in 0.5% methylcellulose in water) in […] dosing volume and administered orally.
Serial blood samples (about 200 μL) were taken from each animal at each of 8 time-points post dose ([…], 0.25, 0.5, 1, 2, 4, 8 and 24 h). Samples were held on ice for no longer than 30 minutes before centrifugation (5,696 rpm (3,000 g) for 15 minutes) for plasma generation. Plasma was frozen on dry ice prior to bioanalysis. PK parameters were generated from LC-MS/MS data using Phoenix WinNonlin 6.3 software.

Data set [2] concerns the target T1, NLRP3 (Homo sapiens, UniProt Q96P20). The data set can be described thus: THP-1 cells pyroptosis assay. The format is cell-based. More on the design: Seed THP-1 cells (25,000 cells/well) containing 1.0 μg/ml LPS; host or cells: THP-1. Conditions: LPS 1.0 μg/ml, nigericin 5 μM, resazurin readout, 10 μM top dose (Example 2: top dose of 30 μM). In a few lines: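 THP-1 cells (25,000/well) primed with 1 μg/ml LPS in serum-free RPMI, treated with compound (8-point dilution, 10 μM top unless stated; 0.1% DMSO) 3 h at 37°C, then nigericin 5 μM 1 h. Viability read by resazurin (100 μM, 1-2 h) fluorescence; IC50 from 4-parameter fit.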
For orientation: Resazurin is reduced to fluorescent resorufin, in cell work by metabolically active cells.

The target of data set [3] is T1, NLRP3. The data set can be described thus: Human whole blood IL1β release assay. The format is cell-based. The conditions noted are these: LPS 1 μg/ml, nigericin 10 μM, IL-1β AlphaLisa, 10 μM top dose (Example 2: top dose of 30 μM), read-out: HWB IC50. In a few lines:
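Healthy-donor heparinised human whole blood with 1 μg/ml LPS, compound (8-point half-log dilution, 10 μM top dose unless stated; 0.1% DMSO vehicle) for 3 h at 37 °C, then nigericin 10 μM final for 1 h. Supernatant IL-1β by AlphaLISA; IC50 from 4-parameter variable-slope fit.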
Background: In Alpha technology, singlet oxygen from a donor bead excites a nearby acceptor bead.

T1 sequence (Q96P20 whole entry): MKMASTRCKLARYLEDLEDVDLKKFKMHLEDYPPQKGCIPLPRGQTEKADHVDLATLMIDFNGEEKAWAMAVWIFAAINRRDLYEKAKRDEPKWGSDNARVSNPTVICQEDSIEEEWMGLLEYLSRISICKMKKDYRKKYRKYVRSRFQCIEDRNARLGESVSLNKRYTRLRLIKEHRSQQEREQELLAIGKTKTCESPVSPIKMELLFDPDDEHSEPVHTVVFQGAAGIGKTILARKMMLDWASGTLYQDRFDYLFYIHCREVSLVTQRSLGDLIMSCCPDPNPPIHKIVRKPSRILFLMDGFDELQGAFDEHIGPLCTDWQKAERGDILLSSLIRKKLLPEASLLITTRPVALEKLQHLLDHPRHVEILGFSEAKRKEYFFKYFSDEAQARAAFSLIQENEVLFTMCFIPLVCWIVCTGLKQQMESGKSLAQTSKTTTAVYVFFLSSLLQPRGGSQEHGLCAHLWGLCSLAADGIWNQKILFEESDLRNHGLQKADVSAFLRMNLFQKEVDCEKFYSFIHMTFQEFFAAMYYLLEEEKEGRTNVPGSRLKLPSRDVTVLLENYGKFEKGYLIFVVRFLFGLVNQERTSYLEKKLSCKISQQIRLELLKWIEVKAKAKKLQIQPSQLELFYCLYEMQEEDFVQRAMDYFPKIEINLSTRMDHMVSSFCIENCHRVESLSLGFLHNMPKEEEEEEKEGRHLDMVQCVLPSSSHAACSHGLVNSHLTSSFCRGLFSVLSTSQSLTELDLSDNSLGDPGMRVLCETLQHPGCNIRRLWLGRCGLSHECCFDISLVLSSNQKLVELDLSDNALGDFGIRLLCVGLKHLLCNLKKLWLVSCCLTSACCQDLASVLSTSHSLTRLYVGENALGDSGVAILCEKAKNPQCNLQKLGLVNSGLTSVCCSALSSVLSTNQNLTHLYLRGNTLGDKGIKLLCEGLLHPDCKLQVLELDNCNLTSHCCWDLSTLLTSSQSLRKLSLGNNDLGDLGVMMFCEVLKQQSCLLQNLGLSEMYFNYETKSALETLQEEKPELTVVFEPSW

In data set [1], `O=S(=O)(c1nnc(Nc2c3c(cc4c2CCC4)CCC3)[nH]1)N1CCC2(CCCN2)CC1` [Example 268, 5-((1,8-diazaspiro[4.5]decan-8-yl)sulfonyl)-N-(1,2,3,5,6,7-hexahydro-s-indacen-4-yl)-4H-1,2,4-triazol-3-amine] showed an AUC of 175 ng·h/mL, a clearance of 95.3 mL/min/kg and a half-life of 2.52 h. Also, the Vd in data set [1] (read-out: Vdss) came to 12.1 L/kg. Further, the pIC50 against NLRP3 [2] was at least 6.30. Moreover, at NLRP3 [3], the negative logarithm of the IC50 (pIC50) was at least 6.00.

Take `O=S(=O)(c1nnc(Nc2c3c(cc4c2CCC4)CCC3)[nH]1)N1CC2(CNC2)C1` [Example 150, 5-(2,6-Diazaspiro[33]heptan-2-ylsulfonyl)-N-(1,2,3,5,6,7-hexahydro-s-indacen-4-yl)-4H-1,2,4-triazol-3-amine]: the pIC50 on NLRP3 [2] and on NLRP3 [3] was at least 5.30 in each case.

With `CN1CCCC12CCN(S(=O)(=O)c1nnc(Nc3c(-c4ccnc(OC(F)F)c4)ccc4c3CCC4)[nH]1)CC2` [Example 201, N-(5-(2-(difluoromethoxy)pyridin-4-yl)-2,3-dihydro-1H-inden-4-yl)-5-((1-methyl-1,8-diazaspiro[4.5]decan-8-yl)sulfonyl)-4H-1,2,4-triazol-3-amine], the negative-log IC50 (pIC50) against NLRP3 [2] and at NLRP3 [3] was at least 6.30 each time.

As to `COc1cc(-c2ccc3c(c2Nc2nnc(S(=O)(=O)c4ccn(C(C)C)n4)[nH]2)CCC3)ccn1` [Example 34, 5-((1-isopropyl-1H-pyrazol-3-yl)sulfonyl)-N-(5-(2-methoxypyridin-4-yl)-2,3-dihydro-1H-inden-4-yl)-4H-1,2,4-triazol-3-amine], the values for the negative logarithm of the IC50 (pIC50) against NLRP3 [2] and at NLRP3 [3] were at least 6.00 and at least 5.30, respectively.

As to `O=S(=O)(c1nnc(Nc2c3c(cc4c2CCC4)CCC3)[nH]1)N1CC[C@H](C2(O)CC2)C1` [Example 345, (S)-1-(1-((5-((1,2,3,5,6,7-hexahydro-s-indacen-4-yl)amino)-4H-1,2,4-triazol-3-yl)sulfonyl)pyrrolidin-3-yl)cyclopropanol], the negative-log IC50 (pIC50) is at least 6.00 at NLRP3 [2] and at least 5.00 on NLRP3 [3].

As to `CN(C)C1CCN(S(=O)(=O)c2nnc(Nc3c4c(c(F)c5c3CCC5)CCC4)[nH]2)CC1` [Example 224, 1-((5-((8-fluoro-1,2,3,5,6,7-hexahydro-s-indacen-4-yl)amino)-4H-1,2,4-triazol-3-yl)sulfonyl)-N,N-dimethylpiperidin-4-amine], the pIC50 against NLRP3 [2] is at least 6.30; on NLRP3 [3] it was at least 6.00.

Consider `CN(C1CNC1)S(=O)(=O)c1nnc(Nc2c3c(cc4c2CCC4)CCC3)[nH]1` [Example 120, N-(azetidin-3-yl)-5-((1,2,3,5,6,7-hexahydro-s-indacen-4-yl)amino)-N-methyl-4H-1,2,4-triazole-3-sulfonamide], for which the pIC50 against NLRP3 [2] and at NLRP3 [3] was at least 5.30 in each case.

With `CC(C)c1cc(F)cc(-c2ccncc2)c1Oc1nnc(S(=O)(=O)N2CCC(CN(C)C)C2)[nH]1` (stereo not drawn) [Example 152, 1-(1-((5-(4-fluoro-2-isopropyl-6-(pyridin-4-yl)phenoxy)-4H-1,2,4-triazol-3-yl)sulfonyl)pyrrolidin-3-yl)-N,N-dimethylmethanamine], the pIC50 on NLRP3 [2] and on NLRP3 [3] was at least 5.30 in each case.

`[2H]C([2H])([2H])Oc1cc(-c2ccc3c(c2Nc2nnc(S(=O)(=O)N4CCC(N(C)C)CC4)[nH]2)CCC3)ccn1` [Example 227, 1-((5-((5-(2-(methoxy-d3)pyridin-4-yl)-2,3-dihydro-1H-inden-yl)amino)-4H-1,2,4-triazol-3-yl)sulfonyl)-N,N-dimethylpiperidin-4-amine]: the negative-log IC50 (pIC50) on NLRP3 [2] and at NLRP3 [3] was at least 6.30 throughout.

Regarding `COc1cc(-c2cc(F)cc(C(C)C)c2Nc2nnc(S(=O)(=O)N3CCC4(CCN4C)CC3)[nH]2)ccn1` [Example 249, N-(4-fluoro-2-isopropyl-6-(2-methoxypyridin-4-yl)phenyl)-5-((1-methyl-1,7-diazaspiro[3.5]nonan-7-yl)sulfonyl)-4H-1,2,4-triazol-3-amine], the pIC50 against NLRP3 [2] was at least 6.30; on NLRP3 [3], at least 5.30.

For `COc1cc(-c2cc(F)cc(C(C)C)c2Nc2nnc(S(=O)(=O)N3CC4(CCN(C)C4)C3)[nH]2)ccn1` [Example 248, N-(4-fluoro-2-isopropyl-6-(2-methoxypyridin-4-yl)phenyl)-5-((6-methyl-2,6-diazaspiro[3.4]octan-2-yl)sulfonyl)-4H-1,2,4-triazol-3-amine], the negative-log IC50 (pIC50) on NLRP3 [2] was at least 6.30; at NLRP3 [3], at least 6.00.

Turning to `COc1cc(-c2c(C)cc3c(c2Nc2nnc(S(=O)(=O)c4ccccc4)[nH]2)CCC3)ccn1` [Example 319, N-(5-(2-methoxypyridin-4-yl)-6-methyl-2,3-dihydro-1H-inden-4-yl)-5-(phenylsulfonyl)-4H-1,2,4-triazol-3-amine], the pIC50 on NLRP3 [2] is at least 6.30; on NLRP3 [3] it was at least 5.00.

As to `COc1cc(-c2cc(F)cc(C(C)C)c2Oc2nnc(S(=O)(=O)N3CCC4(CCCN4C)CC3)[nH]2)ccn1` [Example 251, 8-((5-(4-fluoro-2-isopropyl-6-(2-methoxypyridin-4-yl)phenoxy)-4H-1,2,4-triazol-3-yl)sulfonyl)-1-methyl-1,8-diazaspiro[4.5]decane], the pIC50 against NLRP3 [2] is at least 6.30; on NLRP3 [3], at least 5.30.

On to `[2H]C([2H])([2H])Oc1cc(-c2ccc3c(c2Nc2nnc(S(=O)(=O)N4CC[C@H](C(C)(C)O)C4)[nH]2)CCO3)ccn1` [Example 343, (S)-2-(1-((5-((5-(2-(methoxy-d3)pyridin-4-yl)-2,3-dihydrobenzofuran-4-yl)amino)-4H-1,2,4-triazol-3-yl)sulfonyl)pyrrolidin-3-yl)propan-2-ol], for which the negative logarithm of the IC50 (pIC50) against NLRP3 [2] is at least 6.30; on NLRP3 [3] it was at least 6.00.

As to `O=S(=O)(c1nnc(Nc2c3c(cc4c2CCC4)CCC3)[nH]1)N1CC2(CCC(O)C2)C1` (stereo not drawn) [Example 346, 2-((5-((1,2,3,5,6,7-hexahydro-s-indacen-4-yl)amino)-4H-1,2,4-triazol-3-yl)sulfonyl)-2-azaspiro[3.4]octan-6-ol], the pIC50 is at least 6.00 at NLRP3 [2] and at least 5.30 on NLRP3 [3].

Consider `CN(C)CC1CN(S(=O)(=O)c2nnc(Nc3c4c(cc5c3CCC5)CCC4)[nH]2)CCO1` (stereo not drawn) [Example 149, 5-((2-((dimethylamino)methyl)morpholino)sulfonyl)-N-(1,2,3,5,6,7-hexahydro-s-indacen-4-yl)-4H-1,2,4-triazol-3-amine], for which the pIC50 against NLRP3 [2] was at least 6.00; at NLRP3 [3] it was at least 5.30.

Regarding `CN(C)C1CCN(S(=O)(=O)c2nnc(Nc3c(-c4ccnc(C5CC5)c4)ccc4c3CCC4)[nH]2)CC1` [Example 199, 1-((5-((5-(2-cyclopropylpyridin-4-yl)-2,3-dihydro-1H-inden-4-yl)amino)-4H-1,2,4-triazol-3-yl)sulfonyl)-N,N-dimethylpiperidin-4-amine], the values for the pIC50 against NLRP3 [2] and on NLRP3 [3] were at least 6.30 and at least 5.30, respectively.

As to `COc1cc(-c2cc(F)cc(C(C)C)c2Nc2nnc(S(=O)(=O)N3CCC4(CCCN4C)CC3)[nH]2)ccn1` [Example 260, N-(4-fluoro-2-isopropyl-6-(2-methoxypyridin-4-yl)phenyl)-5-((1-methyl-1,8-diazaspiro[4.5]decan-8-yl)sulfonyl)-4H-1,2,4-triazol-3-amine], the negative-log IC50 (pIC50) was at least 6.30 against NLRP3 [2] and at least 5.30 at NLRP3 [3].

Regarding `Cc1cc2c(c(Nc3nnc(S(C)(=O)=O)[nH]3)c1-c1ccnc(OC3CCN(C)CC3)c1)CCC2` [Example 317, N-(6-methyl-5-(2-((1-methylpiperidin-4-yl)oxy)pyridin-4-yl)-2,3-dihydro-1H-inden-4-yl)-5-(methylsulfonyl)-4H-1,2,4-triazol-3-amine], the negative-log IC50 (pIC50) was at least 6.00 against NLRP3 [2] and at least 5.30 at NLRP3 [3].

Regarding `COC(C)(C)Cn1ccc(S(=O)(=O)c2nnc(Nc3c4c(cc5c3CCC5)CCC4)[nH]2)n1` [Example 18, N-(1,2,3,5,6,7-hexahydro-s-indacen-4-yl)-5-((1-(2-methoxy-2-methylpropyl)-1H-pyrazol-3-yl)sulfonyl)-4H-1,2,4-triazol-3-amine], the negative-log IC50 (pIC50) is at least 6.30 against NLRP3 [2] and at least 5.00 on NLRP3 [3].

In the case of `NC(=O)c1cccc(S(=O)(=O)c2nnc(Nc3c4c(cc5c3CCC5)CCC4)[nH]2)c1` [Example 341, 3-((5-((1,2,3,5,6,7-hexahydro-s-indacen-4-yl)amino)-4H-1,2,4-triazol-3-yl)sulfonyl)benzamide], the pIC50 against NLRP3 [2] was at least 6.30; at NLRP3 [3] it was at least 5.00.

On to `CCN1CCC2(C1)CN(S(=O)(=O)c1nnc(Nc3c4c(cc5c3CCC5)CCC4)[nH]1)C2` [Example 240, 5-((6-ethyl-2,6-diazaspiro[3.4]octan-2-yl)sulfonyl)-N-(1,2,3,5,6,7-hexahydro-s-indacen-4-yl)-4H-1,2,4-triazol-3-amine], for which the negative logarithm of the IC50 (pIC50) at NLRP3 [2] and at NLRP3 [3] was at least 6.30 throughout.

One may read the AUC as concentration integrated over time. A high value points to high exposure. For orientation: clearance means the volume of plasma or blood freed of the substance per unit of time. The term half-life denotes the time in which the quantity being followed falls by half. A low value points to rapid decline. The pIC50 is the negative decadic logarithm of the IC50, by convention in mol/L.
